Test results: US11964984B2, “TXNIP-TRX complex inhibitors and methods of using the same” (CITY OF HOPE, priority 2020, dated 2024)

What was measured:
TXNIP mRNA = TXNIP mRNA expression in THP1 cells under 25 mM glucose (RT-PCR); assay type: cell-based, human
Experimental: FIGS. 2A-2B. FIG. 2A: C30 and C38 inhibited TXNIP mRNA expression in THP1 cells. THP1 cells were cultured under 25 mM glucose with the indicated concentrations of compounds for 72 hours. Cells were then collected for total RNA preparation. RT-PCR was performed, and data shown are the mean±SEM from triplicates. Statistical analysis was performed using one-way ANOVA, *p<0.0001. FIG. 2B: C30 and C38 inhibited TNF-α mRNA expression in THP1 cells. THP1 cells were cultured under 25 mM glucose with various concentrations of compounds as indicated for 72 hours and collected for total RNA preparation. RT-PCR was performed, and data shown are the mean±SEM from triplicates. Statistical analysis was performed using one-way ANOVA: *<0.02; **<0.0001.
FIG. 6. C38 analogues effects on TXNIP mRNA expression in THP1 cells. THP1 cells were cultured under 25 mM glucose with 2.5 uM of compounds for 72 h. Total RNA was collected. RT-PCR was performed in triplicate and data shown are the mean±SEM. Statistical analysis was performed using one-way ANOVA: *p<0.0001.
FIG. 7. C38 and analogue E2 effects on TXNIP mRNA levels in THP cells. THP1 cells were cultured under 25 mM glucose with several concentration of C38 and E2 as indicated for 72 hours. Total RNA was prepared. RT-PCR was performed in triplicate and data shown are the mean±SEM. Statistical analysis was performed for each column vs. without compound control using one-way ANOVA: *p<0.0001.
C30 and C38 inhibited TXNIP mRNA expression in THP1 cells.
Discovery of lead compound analogues. A search of chemical libraries was performed in the interest of identifying possible lead compound analogues. Analogues to C38 were identified. To determine the properties of the analogues, we treated THP1 cells with the E batch compounds for three days, prepared RNA and measured TXNIP mRNA levels.
RNA extraction and quantitative RT-PCR. RNA was extracted using the Direct-zol™ RNA MiniPrep Plus (Zymo Research). Reverse transcription of RNA samples into cDNA was performed using the GeneAmp RNA PCR Kit (Applied Biosystems), dNTP (from Roche Applied Science), Rnase inhibitor, MULV Reverse Transcriptase and Random hexamers reagent (all from Invitrogen). Diluted cDNA was quantified using real-time PCR performed with Power SYBR Green qPCR MasterMix (Applied Biosystem) and 7500 real-time PCR system (Applied Biosystems). The HPRT1 gene was used as an internal control.

TXNIP = conditions: literature (Nature Med. 2018); cited from earlier work

Compound | TXNIP mRNA expression (C38 analogues screen) (TXNIP mRNA; 2.5 uM compound, 72 h) | TXNIP mRNA levels, E2 compared with C38 (TXNIP mRNA; several concentrations, 72 hours) | expression of TXNIP (TXNIP)
COc1ccc(CCNc2ncnc3c2oc2ccccc23)cc1OC [Compound E2] | strongly inhibited TXNIP mRNA expression | moderately better than C38 | –
COc1ccc(CCN(C)CCCC(C#N)(c2ccc(OC)c(OC)c2)C(C)C)cc1OC (stereo not drawn) [Verapamil] | – | – | inhibit the expression of TXNIP
